# PubChem BioAssay (NCI)
#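 Interpolation was linear, between the two tested concentrations surrounding the appropriate level; five concentrations were tested over 48 hours in 96-well plates. At the TGI there is no net growth.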
# System: SN12K1 renal
# Test: NCI-60 cell line screen, 48 h
smiles,measurement,value
CCOC(=O)c1ccc(N[C@@H]2c3cc4c(cc3C(c3cc(OC)c(O)c(OC)c3)[C@H]3C(=O)OCC32)OCO4)cc1 (stereo partly specified),TGI,1440 nM
